Test results published in patent US7605272B2, “IGF-1R inhibitor” (Kyowa Hakko Kirin Co., Ltd., priority 2005, dated 2009).
Structures can show the parent of a compound that is named as a salt.

What follows are compounds tested against T1, IGF-1R (Homo sapiens, UniProt P08069) (assay: IGF-1R inhibitory activity (kinase reaction, time-resolved fluoroimmunoassay)). Settings: IGF-1R active recombinant enzyme, test compound 10 μmol/L.
T1 construct: purchased Upstate Co. 14-465
T1 sequence (P08069 959-1367 limits assumed): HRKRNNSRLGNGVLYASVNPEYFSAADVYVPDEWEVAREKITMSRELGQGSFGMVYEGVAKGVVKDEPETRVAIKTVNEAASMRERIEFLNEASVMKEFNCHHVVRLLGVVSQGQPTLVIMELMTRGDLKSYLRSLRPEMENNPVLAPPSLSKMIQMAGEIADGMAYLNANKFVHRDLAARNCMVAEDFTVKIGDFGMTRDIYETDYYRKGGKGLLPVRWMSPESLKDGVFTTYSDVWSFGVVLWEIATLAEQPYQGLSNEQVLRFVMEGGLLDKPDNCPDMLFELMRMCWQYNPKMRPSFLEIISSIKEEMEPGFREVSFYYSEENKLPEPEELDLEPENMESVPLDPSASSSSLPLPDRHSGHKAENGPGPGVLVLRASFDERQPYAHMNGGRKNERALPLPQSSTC
Format: biochemical
Experimental: The IGF-1R inhibitory activity was measured in the following manner.
As IGF-1R, active recombinant enzyme (Catalog No. 14-465) purchased from Upstate Co., was used. To 96 well plate (FIA-PLATE BLACK 96 well FALT-BOTTOM HIGH BINDING, Greiner Bio-one, Catalog No. 655077) coated with NeutroAvidin (Pierce, Catalog No. 31000), biotinylated polyglutamic acid-tyrosine peptide (Nihon Schering K.K., Catalog No. 61GT0BAA) was immobilized and then blocked with 0.25% gelatin to be used as a plate for measuring the kinase reaction. Separately was prepared a solution containing at final concentrations, IGF-1R (200 μg/L), Tris.HCl(pH 7.5)(20 mmol/L), Na3VO4(0.1 mmol/L), MgCl2(1 mmol/L), MnCl2(10 mmol/L), ATP(10 mmol/L), 2-mercaptoethanol (0.04%), BSA(Bovine Serum Albumin) (0.1%), DMSO(0.1%), test compound (10 μmol/L). The solution (each 50 μL) was added to the well of the plate for measuring the kinase reaction and then, enzyme reaction was performed for 30 minutes at 24° C. The plate was washed with TBS-T [10 mmol/L Tris Cl (pH 7.5), 150 mmol/L NaCl, 0.05% Tween 20 (Bio-Rad, Catalog No. 170-6531)] 4 times, then reacted with europium-labeled anti-phosphotyrosine antibody, further washed with TBS-T 4 times and then, measured with time-resolved fluoroimmunoassay (excitation wavelength 340 nm, measuring wavelength 615 nm). The value of a well to which the test compound had not been added was considered as 100% and that of a well where the enzyme and the test compound had not been added was considered as 0%. The relative activity (%) of the well which was added with enzyme and the test compound was measured and by subtracting the calculated value from 100, IGF-1R inhibitory activity of the test compound (%) was determined.
Work on CN1CCN(C(=O)c2ccc(/C=C/c3n[nH]c4ccccc34)c(N3Cc4cccc(N)c4C3=O)c2)CC1 [Compound 316, (E)-7-amino-2-{2-[2-(1H-indazol-3-yl)vinyl]-5-(4-methylpiperazin-1-ylcarbonyl)phenyl}-2,3-dihydroisoindole-1-one] yielded an inhibition at 10 µM of 103%. Nc1cccc2c1CN(c1cc(CN3CCN(CCCO)CC3)ccc1/C=C/c1n[nH]c3ccccc13)C2=O [Compound 314, (E)-4-amino-2-{5-[4-(3-hydroxypropyl)piperazin-1-ylmethyl]-2-[2-(1H-indazol-3-yl)vinyl]phenyl}-2,3-dihydroisoindole-1-one] showed an inhibition at 10 µM of 102%. In the case of OCCc1nc(-c2ccccc2/C=C/c2n[nH]c3ccccc23)no1 [Compound 181, (E)-2-{3-{2-[2-(1H-indazol-3-yl)vinyl]phenyl}[1,2,4]oxadiazol-5-yl}ethanol], the inhibition at 10 µM is reported as 98.9%. CNC(=O)c1nc(-c2ccccc2/C=C/c2n[nH]c3ccccc23)no1 [Compound 177, (E)-3-{2-[2-(1H-indazol-3-yl)vinyl]phenyl}-N-methyl[1,2,4]oxadiazole-5-carboxamide] gave an inhibition at 10 µM of 99.4%. Cn1cccc1C(=O)Nc1ccc(N2CCOCC2)cc1/C=C/c1n[nH]c2ccccc12 [Compound 226, (E)-N-{2-[2-(1H-indazol-3-yl)vinyl]-4-(morpholin-4-yl)phenyl}-1-methyl-1H-pyrrole-2-carboxamide hydrochloride] was tested, and the inhibition at 10 µM was 97.8%. Compound CSc1ccccc1/C=C/c1n[nH]c2ccccc12 [Compound 146, (E)-3-[2-(2-methylsulfanylphenyl)vinyl]-1H-indazole] has an inhibition at 10 µM of 78.3%. Work on O=C1C2=C(CCCC2)C(=O)N1c1ccccc1/C=C/c1n[nH]c2ccccc12 [Compound 203, (E)-2-{2-[2-(1H-indazol-3-yl)vinyl]phenyl}-4,5,6,7-tetrahydroisoindole-1,3-dione] yielded an inhibition at 10 µM of 101%. In the case of Nc1cccc2c1CN(c1cc(C(=O)N3CCOCC3)ccc1/C=C/c1n[nH]c3ccccc13)C2=O [Compound 324, (E)-4-amino-2-{2-[2-(1H-indazol-3-yl)vinyl]-5-(morpholin-4-ylcarbonyl)phenyl}-2,3-dihydroisoindole-1-one], the inhibition at 10 µM is reported as 102%. Cc1cc(CO)c(C)n1-c1ccccc1/C=C/c1n[nH]c2ccccc12 [Compound 191, (E)-1-{2-[2-(1H-indazol-3-yl)vinyl]phenyl}-2,5-dimethyl-1H-pyrrol-3-ylmethanol] showed an inhibition at 10 µM of 102%. With Nc1cccc2c1CN(c1cc(CN3CCN(CCO)CC3)ccc1/C=C/c1n[nH]c3ccccc13)C2=O [Compound 345, (E)-4-amino-2-{5-[4-(2-hydroxyethyl)piperazin-1-ylmethyl]-2-[2-(1H-indazol-3-yl)vinyl]phenyl}-2,3-dihydroisoindole-1-one] the inhibition at 10 µM was 105%. Cc1ccsc1C(=O)Nc1ccc(N2CCOCC2)cc1/C=C/c1n[nH]c2ccccc12 [Compound 225, (E)-N-{2-[2-(1H-indazol-3-yl)vinyl]-4-(morpholin-4-yl)phenyl}-3-methylthiophene-2-carboxamide hydrochloride] gave an inhibition at 10 µM of 95%. CN(C)CCNCc1ccn(-c2ccccc2/C=C/c2n[nH]c3ccccc23)c1 [Compound 186, (E)-N′-(1-{2-[2-(1H-indazol-3-yl)vinyl]phenyl}-1H-pyrrol-3-ylmethyl)-N,N-dimethylethane-1,2-diamine] was tested, and the inhibition at 10 µM was 102%. C(=C\c1n[nH]c2ccccc12)/c1ccccc1-n1cccc1 [Compound 162, (E)-3-{2-[2-(pyrrol-1-yl)phenyl]vinyl}-1H-indazole] showed an inhibition at 10 µM of 102%.

Same assay, conditions: test compound 10 μmol/L
Compound CSc1ccc(C(=O)Nc2ccccc2/C=C/c2n[nH]c3ccccc23)cc1 [Compound 82, (E)-N-{2-[2-(1H-indazol-3-yl)vinyl]phenyl}-4-methylsulphanylbenzamide] has an inhibition at 10 µM of 84.7%. Work on Cc1ccsc1C(=O)Nc1cc(C(=O)N2CCN(C)CC2)ccc1/C=C/c1n[nH]c2ccccc12 [Compound 126, (E)-N-{2-[2-(1H-indazol-3-yl)vinyl]-5-(4-methylpiperazin-1-ylcarbonyl)phenyl}-3-methylthiophene-2-carboxamide] yielded an inhibition at 10 µM of 98.8%.
